Measurements taken from article PMC9365994, “Small molecules to regulate the GH/IGF1 axis by inhibiting the growth hormone receptor synthesis” (Frontiers in Endocrinology, 2022).
Entries after “also recorded” stand apart in the source; their conditions may differ.

Columns and labels:
[1] = target: T1, GHR (Homo sapiens, UniProt P10912); test: Endogenous GHR levels in IM-9 human B lymphoblasts (immunoprecipitation); type: cell-based; details: for levels of GHR: IM-9 lymphoblasts, in 4 h
T1 construct: endogenous in cells; host or cells: IM-9 human B lymphoblasts
T1 sequence (P10912 19-638): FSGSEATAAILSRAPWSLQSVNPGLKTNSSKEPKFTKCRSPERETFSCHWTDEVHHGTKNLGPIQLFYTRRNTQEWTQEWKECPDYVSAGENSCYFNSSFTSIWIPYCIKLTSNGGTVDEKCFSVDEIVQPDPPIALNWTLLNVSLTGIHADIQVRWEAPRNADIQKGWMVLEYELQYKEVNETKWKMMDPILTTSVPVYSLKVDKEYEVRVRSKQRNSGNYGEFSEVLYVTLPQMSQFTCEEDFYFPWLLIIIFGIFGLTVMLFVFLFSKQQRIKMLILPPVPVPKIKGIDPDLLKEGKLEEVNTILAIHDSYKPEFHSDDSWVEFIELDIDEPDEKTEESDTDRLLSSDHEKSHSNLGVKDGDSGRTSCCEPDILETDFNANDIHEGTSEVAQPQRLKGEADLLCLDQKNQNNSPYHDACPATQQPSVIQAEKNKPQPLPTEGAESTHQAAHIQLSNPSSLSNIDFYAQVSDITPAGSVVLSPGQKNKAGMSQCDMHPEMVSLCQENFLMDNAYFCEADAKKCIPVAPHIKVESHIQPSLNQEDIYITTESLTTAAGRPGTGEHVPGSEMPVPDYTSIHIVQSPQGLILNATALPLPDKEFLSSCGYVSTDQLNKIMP
Protocol: For GHR-Jak2 co-immunoprecipitations, the cells were lysed in 20 mM Tris pH 8.0, 150 mM NaCl, 0.5% NP40, 1 mM PMSF, […]. Cell lysates were centrifuged to pellet the nuclei and the supernatants were used for GHR isolation in 1% Triton X-100, 0.5% SDS,0.25% sodium deoxycholate, 0.5% BSA, and inhibitors via immune precipitation with anti-GHR and protein A beads. Immunoprecipitates were subjected to reducing SDS-PAGE and transferred to Immobilon-FL polyvinylidenedifluoride membrane (Millipore). Blots were immunostained with the indicated primary antibodies followed by Alexa Fluor 680, Alexa-800 IRDye conjugated anti-mouse or anti-rabbit antibodies. Detection was performed with an Odyssey system (LI-COR Biosciences).
In the primary screen we used soluble fos-zipped GHR cytosolic tails that act in signaling complexes if co-expressed with Jak2. Initially, 6 scenarios were anticipated that can lower these signals. In the discovery itinerary we used the flow cytometer assay twice to find drugs that act on the GH-induced Jak2/STAT5 pathway and not on the identical GM/CSF-driven pathway ( Figure 3 , Figure S8 ). As the GM/CSF-induced Jak2/STAT5 pathway was not affected by the 2 hit compounds (BM004 and BM012), that served as prototypes for the final analogue selection, we excluded the possibility that they act on the Jak2 signaling pathway directly (scenario 1). To test scenario 2 (inhibition of fos-GHRct expression), we treated GHR-expressing Hek293T cells with a selection of drugs from the cell proliferation studies and analyzed the GHR species. […] The ratio between the amounts of GHR in the ER and at the PM reflects a steady state of synthesis (ER) and transport to the PM followed by endocytosis and degradation in the lysosomes. […] Because both species diminished, the drugs either inhibit the synthesis of GHR molecules or induce rapid GHR degradation in the ER. To decide between these possibilities, we performed in vitro translation experiments. […]
Figure 7 Effect of drugs on protein synthesis. […] The blots were detected with anti-GHR(B). […]

[2] = tested on: MM231 breast cancer cells; test: MM231 orthotopic xenograft, tumor growth; type: in vivo, mice; details: 1 and 5 mg/kg, 3 injections per week, 3 weeks
Protocol: Female RAG2^-/-; IL-2Rgc^-/- immune deficient mice ([37]) were purchased from Envigo (Horst, The Netherlands). Orthotopic transplantations, longitudinal tumor measurements and bioluminescence imaging were performed as described ([38]). Mice were treated when tumors reached a volume of >50 mm^3, three times weekly for a period of three weeks with the indicated drug concentrations.
BM001, BM002, and BM003 were used in mice xenografted with MM231 breast cancer cells that are GH-responsive both for growth and drug resistance ([42]–[45]). The cells were orthotopically grafted into the inguinal mammary gland, and drug treatments started when tumors reached a volume of >50 mm^3. We used a treatment regimen of 3 injections per week (1 and 5 mg/kg) during 3 weeks (9 mice/group) ( Figure 6 ). Animals were killed when tumor volume exceeded 150 mm^3 or mice presented lung metastasis upon bioluminescence imaging measurements. […] Drug withdrawal effects were not studied until now. […] We observed no adverse side effects neither on appetite and behavior ([46]). […] We next assessed if the identified drugs indeed target the GH/IGF1 pathway and consequently, if they result in a decrease in liver weight and IGF1 levels, as observed in GHR knockout mice and Laron patients ([47]).

GHR in IM-9 cells ([1]; drugs 4 hrs) | levels of GHR [1] | Compound | tumor growth / tumor volume (in words) [2]
depleted |  | Cc1nc(N)nc(N)c1/C=C/C1(c2ccc(C(F)(F)F)cc2)CC1 [BM001] | strong decrease; also recorded: continued to suppress tumor growth; also recorded: inhibit tumor growth; also recorded: tumor regression
 | ~ 60% | COc1cc(CN(C)c2ccc3nc(N)nc(N)c3c2)cc(OC)c1OC [BM003] | started to increase again; also recorded: inhibit tumor growth
 | ~ 60% | Cc1c(-c2cccc(C#N)c2)ccc2nc(N)nc(N)c12 [BM002] | started to increase again; also recorded: inhibit tumor growth
